This series can be described thus: Relaxometric properties: longitudinal relaxivity r1p in human plasma. Format: physicochemical. To be noted: 37° C. Here is the method:
The relaxometric properties of some representative complex compounds according to the invention have been determined at different magnetic field strengths, e.g. including 0.47 and 1.41 T, at 37° C. and in different media (physiologic solution and human plasma) and compared with relaxivity values measured, at the same conditions, for some Gd-Complex of the market having an analogous cyclic coordination cage.
The longitudinal water proton relaxation rate (R1=1/T1) was measured at 0.47 T with a Minispec MQ-20 spectrometer (Bruker Biospin, Germany) operating at a proton Larmor frequency of 20 MHz; MR experiments at 1.41 T were performed using a Minispec MQ-60 spectrometer (Bruker Biospin, Germany) operating at a proton Larmor frequency of 60 MHz.
All test articles were used as supplied and diluted in the selected medium (physiologic solution or human plasma) by weighting the required amount of paramagnetic chelated complex to get a 5 or 10 mM starting solution.
Five different concentration samples (0.1, 0.25, 0.5, 0.75 and 1 mM) for each medium have been prepared by further dilution of the starting 5 or 10 mM solution.
Relaxivity measurements were performed at 0.47 T and 1.41 T at a preset temperature sample of 37° C., kept constant by means of a thermostatic bath connected to the sample holder of the spectrometer. The five sample solutions have been preliminary pre-heated at 37° C. in an external thermostatic bath and then left 10 minutes inside the internal bath to assure the stabilization of the temperature. Longitudinal relaxation time T1 was measured by means of a standard inversion recovery sequence, where the inversion time (TI) was varied from 10 ms to at least 5 times T1 in 15 steps. Statistical analysis (mono-exponential fitting for T1 measurement, linear fitting for the evaluation of longitudinal relaxivity) was performed by Mathematica® (Wolfram, USA). Errors on the estimated parameters were evaluated by the fitting procedure.

As for `O=C(O)CN1CCN(CC(=O)O)CCN(CC(=O)O)CCN(CC(=O)O)CC1`, the “r1p in human plasma” value is 4.5 mM⁻¹ s⁻¹ (0.47 T) and 3.6 mM⁻¹ s⁻¹ (1.41 T).
For `O=C(O)CN1CCN(CC(O)COCC(COCC(O)CN2CCN(CC(=O)O)CCN(CP(=O)(O)O)CCN(CC(=O)O)CC2)OCc2ccccc2)CCN(CC(=O)O)CCN(CP(=O)(O)O)CC1` (stereo not drawn) the same measures were 7.41 mM⁻¹ s⁻¹ and 6.8 mM⁻¹ s⁻¹.
For `CC(O)CN1CCN(CC(=O)O)CCN(CC(=O)O)CCN(CC(=O)O)CC1` (stereo not drawn) (Gd complex, metal not drawn) the same measures were 4.9 mM⁻¹ s⁻¹ and 4.15 mM⁻¹ s⁻¹.

For the origin of these results see US20190167819A1, “CONTRAST AGENTS” (BRACCO IMAGING S.P.A., priority 2016, published 2019).
